Laboratory results taken from patent US7462625B2, “Gonadotropin-releasing hormone receptor antagonists and methods relating thereto” (Neurocrine Biosciences, Inc., priority 2000, dated 2008).
Counter-ions that a name gives are not always drawn.

Molecular target: T1, GnRH receptor (Homo sapiens, UniProt P30968)
T1 construct: expressed in transfected cells
T1 sequence (P30968 1-328): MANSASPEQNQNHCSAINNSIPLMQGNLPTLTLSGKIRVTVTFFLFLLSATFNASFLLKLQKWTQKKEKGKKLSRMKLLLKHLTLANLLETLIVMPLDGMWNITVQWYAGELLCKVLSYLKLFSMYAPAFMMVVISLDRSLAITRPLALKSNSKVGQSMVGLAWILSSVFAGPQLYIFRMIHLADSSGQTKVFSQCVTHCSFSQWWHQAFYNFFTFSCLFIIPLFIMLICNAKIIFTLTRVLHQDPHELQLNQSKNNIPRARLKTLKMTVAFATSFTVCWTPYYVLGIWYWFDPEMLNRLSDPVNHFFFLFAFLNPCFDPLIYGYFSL
Assay: GnRH receptor membrane binding assay
Details: GnRH receptor membrane binding assay, [125I]-labeled GnRH peptide; read-out: Ki
Method: Radio-Iodination of GnRH Peptide
The GnRH analog is labeled by the chloramine-T method. […] The reaction is stopped by the addition of 60 μg sodium metabisulfite and the free iodine is removed by passing the iodinated mixture through a C-8 Sep-Pak cartridge (Millipore Corp., Milford, Mass.). The peptide is eluted with a small volume of 80% acetonitrile/water. […] The purified radioactive peptide is stored in 0.1% BSA/20% acetonitrile/0.1% TFA at −80° C. and can be used for up to 4 weeks.
GnRH Receptor Membrane Binding Assay
Cells stably, or transiently, transfected with GnRH receptor expression vectors are harvested, resuspended in 5% sucrose and homogenized using a polytron homogenizer (2×15 sec). Nucleii are removed by centrifugation (3000×g for 5 min.), and the supernatant centrifuged (20,000×g for 30 min, 4° C.) to collect the membrane fraction. The final membrane preparation is resuspended in binding buffer (10 mM Hepes (pH 7.5), 150 mM NaCl, and 0.1% BSA) and stored at −70° C. Binding reactions are performed in a Millipore MultiScreen 96-well filtration plate assembly with polyethylenimine coated GF/C membranes. […] The reaction is terminated after 90 minutes by application of vacuum and washing (2×) with phosphate buffered saline. Bound radioactivity is measured using 96-well scintillation counting (Packard Topcount) or by removing the filters from the plate and direct gamma counting. Ki values are calculated from competition binding data using non-linear least squares regression using the Prism software package (GraphPad Software).

Ki, < 100 nM:
COc1cccc(-c2c(C)n(Cc3c(F)cccc3F)c(=O)n(C[C@H](C)NCc3[nH]cnc3C)c2=O)c1F [9-602]
Cc1c(-c2ccccc2F)c(=O)n(CCNC2CCC(C)CC2)c(=O)n1Cc1c(F)cccc1F (centres unmarked) [9-149]
COc1cccc(-c2c(C)n(Cc3c(F)cccc3F)c(=O)n(C[C@H](C)NCCc3ccccn3)c2=O)c1F [9-470]
Cc1c(-c2ccccc2F)c(=O)n(C[C@H](N)c2ccccc2)c(=O)n1Cc1c(F)cccc1F [10-1, 6-Methyl-5-(2-fluorophenyl)-3-[2(R)-amino-2-phenylethyl]-1-(2,6-difluorobenzyl)uracil trifluoroacetic acid salt]
COc1cccc(-c2c(C)n(Cc3c(F)cccc3F)c(=O)n([C@H](C)CNCc3cccc(C)c3)c2=O)c1 [9-473]
CCN1CCC(N(CC)CCn2c(=O)c(-c3cccc(OC)c3)c(C)n(Cc3c(F)cccc3F)c2=O)C1 (centres unmarked) [1-13]
COc1cccc(-c2c(C)n(Cc3c(F)cccc3F)c(=O)n(C[C@@H](C)NCc3ccsc3)c2=O)c1F [9-570]
CCOc1ccccc1CNC[C@@H](C)n1c(=O)c(-c2cccc(C)c2F)c(C)n(Cc2c(F)cccc2F)c1=O [9-636]
Cc1c(-c2ccc3c(c2)OCO3)c(=O)n(CCN2CCN(c3cccc(C(F)(F)F)c3)CC2)c(=O)n1Cc1c(F)cccc1F [9-361]
COc1cccc(-c2c(C)n(Cc3c(F)cccc3F)c(=O)n(CCN3CCC[C@@H]3CO)c2=O)c1 [9-4]
CSc1cccc(-c2c(C)n(Cc3c(F)cccc3F)c(=O)n(C[C@H](N)c3ccccc3)c2=O)c1 [8-61]
CCC(C)NC(=O)[C@@H]1CCCN1CCn1c(=O)c(-c2cccc(OC)c2)c(C)n(Cc2c(F)cccc2F)c1=O (some centres unmarked) [9-112]
COc1cccc(-c2c(C)n(Cc3c(F)cccc3F)c(=O)n(CC(C)NCc3cccn3C)c2=O)c1F (centres unmarked) [9-618]
Cc1c(-c2ccc(Oc3ccccc3)cc2)c(=O)n(CCN2CC[C@@H](NC(=O)C(F)(F)F)C2)c(=O)n1Cc1c(F)cccc1F [9-42]
CCc1ccc(CN[C@@H](C)Cn2c(=O)c(-c3cccc(OC)c3F)c(C)n(Cc3c(F)cccc3F)c2=O)o1 [9-665]
Cc1c(-c2ccc(Oc3ccccc3)cc2)c(=O)n(CCNCC(F)(F)F)c(=O)n1Cc1c(F)cccc1F [9-138]
Cc1c(-c2ccc3c(c2)OCO3)c(=O)n(CCNCC2CC2)c(=O)n1Cc1c(F)cccc1F [9-245]
COc1cccc(-c2c(C)n(Cc3c(F)cccc3F)c(=O)n([C@H](C)CNCc3ccc4c(c3)CCO4)c2=O)c1F [9-495]
COc1cccc(-c2c(C)n(Cc3c(F)cccc3F)c(=O)n(CC(C)NCc3ccccn3)c2=O)c1 (centres unmarked) [9-109]
COc1cccc(-c2c(C)n(Cc3c(F)cccc3F)c(=O)n(CC(C)NCc3cc(Br)cs3)c2=O)c1F (centres unmarked) [9-622]
COc1cccc(-c2c(C)n(Cc3c(F)cccc3F)c(=O)n([C@H](C)CNCc3c[nH]c4ccccc34)c2=O)c1F [9-509]
COc1cccc(-c2c(C)n(Cc3c(F)cccc3F)c(=O)n([C@H](C)CNCc3c(F)cccc3Cl)c2=O)c1 [9-514]
COc1cccc(CNC[C@@H](C)n2c(=O)c(-c3cccc(OC)c3)c(C)n(Cc3c(F)cccc3F)c2=O)c1 [9-477]
COc1cccc(-c2c(C)n(Cc3c(F)cccc3F)c(=O)n(C[C@@H](N)CC(C)C)c2=O)c1F [8-23]
CCNC(=O)[C@@H]1CCCN1CCn1c(=O)c(-c2cccc(OC)c2)c(C)n(Cc2c(F)cccc2F)c1=O [9-3]
COc1cccc(Oc2ccc(-c3c(C)n(Cc4c(F)cccc4F)c(=O)n(C[C@H](N)c4ccccc4)c3=O)cc2)c1 [8-68]
COc1cccc(-c2c(C)n(Cc3c(F)cccc3F)c(=O)n(C[C@H](C)N(C)Cc3ccccc3)c2=O)c1F [9-305]
Cc1c(-c2ccc(Oc3ccccc3)cc2)c(=O)n(CCNCc2ccc([N+](=O)[O-])cc2)c(=O)n1Cc1c(F)cccc1F [9-143]
Cc1c(-c2ccc3c(c2)OCCO3)c(=O)n(CCN[C@@H](C)c2ccc3ccccc3c2)c(=O)n1Cc1c(F)cccc1F [9-275]
